Source: patent US7029696B2, “Delivery and activation through liposome incorporation of diaminocyclohexane platinum(II) complexes” (priority 1996, dated 2006)
Entries after “also recorded” stand apart in the source; their conditions may differ.

Key:
[1] = test system: intraperitoneal L1210 mouse leukemia; experiment: In vivo antitumor activity of liposomal Pt-complexes
Method: In vivo. The in vivo antitumor activity of liposomal Pt-complexes was assessed against intraperitoneal L1210 mouse leukemia. […] The results were expressed as the median survival of treated animals divided by the median survival of control animals ×100 (% T/C).

[2] = Intraliposomal stability of Pt-complexes by HPLC; type: physicochemical; details: for intraliposomal stability (in words): DMPC:DMPG liposomes, saline or PBS; for percentage of intact Pt-complex: in liposomes, 6 h after liposome preparation; for NDDP stability (%): liposomal NDDP, lipids as dry powder
Method: Stability of the different Pt-complexes incorporated in liposomes was determined as described previously by comparing the HPLC profiles as a function of time. In brief, aliquoted samples of liposome suspension were diluted (7×) with methanol at 0, 2, 6, and 24 h after liposome preparation, and each sample was then monitored by HPLC using chromega-8 bond column (4.6 mm×25 cm, 8 μm: ES Industries, NJ) and 10% water-methanol as eluant. The flow rate was 1 ml/min, and the complexes were detected by UV at 224 nm wavelength.

[3] = Tracking of liposomal NDDP degradation by 195Pt NMR and HPLC; type: physicochemical
Method: To characterize the active intermediate(s) in the reaction cascade of L-NDDP reconstituted in saline (0.9% NaCl), tracking experiments using ^195Pt NMR spectra in combination with ^31P NMR were performed. Samples 1–3 were prepared using the lipids DMPC and DMPG purchased in chloroform solution, while samples 4–8 were prepared using lipids in dry powder. In samples 1–3, the chloroform was initially evaporated in a rotavapor. The lipid film was dissolved in t-butanol containing the NDDP in solution. An aliquot of this solution was kept at 40° C. for 6 h and then lyophilized and extracted with methanol (sample 3). The remaining was lyophilized immediately, thus resulting in a preliposomal powder, which was reconstituted with saline to produce the liposome suspension. The liposome suspension was kept at room temperature for 6 hours. The Pt compounds and lipids were then extracted with chloroform (sample 1) or the sample was lyophilized to eliminate the water and the powder dissolved in methanol (sample 2) (see FIG. 6). Samples 4, 5, and 6 were prepared by complete evaporation of solvents after keeping the samples at 40° C. for 6 h, and redissolving them in methanol. Samples 7 and 8 were prepared by lyophilization of water for 1–2 d and redissolution in methanol. All samples were prechecked by HPLC before tracking with NMR. Chemical shifts of the products are expressed in parts-per-million relative to Na2PtCl6 in ^195Pt and DMPC in ^31P NMR.

[4] = Liposome entrapment (entrapment efficiency, free drug crystals by optic microscopy); type: physicochemical; details: generated within the liposome membranes from NDDP
Source text: NDDP and its two isomers, B10 and L10 were formulated in liposomes composed of combinations of various lipids including DMPC, DMPG, DOPC, DOPG, PA, PE, and PS. The liposomes were formed by reconstituting preliposomal powders containing the Pt-complex and the lipids with unbuffered 0.9% NaCl aqueous solution (saline) or phosphate-buffered saline (PBS). […] The median size of the multilamellar vesicles was 1–2 μm in all preparations. The median size of the small-size liposomes prepared by ultrasonication of multilamellar vesicles was 50–100 nm.

[5] = Solubility of DACH-Pt-Cl2; type: physicochemical
[6] = liposomal, DMPC:DMPG 7:3, lipids in chloroform, reconstituted in PBS, 25 mg/kg i.p. day 1
[7] = liposomal, DMPC:DMPG 7:3, lipids in chloroform, reconstituted in PBS, 50 mg/kg i.p. day 1
[8] = liposomal, DMPC:DMPG 7:3, lipids in chloroform, reconstituted in PBS, 100 mg/kg i.p. day 1
[9] = liposomal, DMPC:DMPG 7:3, lipids in chloroform, reconstituted in PBS, 150 mg/kg i.p. day 1
[10] = liposomal, DMPC:DMPG 7:3, lipids in chloroform, reconstituted in saline, 25 mg/kg i.p. day 1
[11] = liposomal, DMPC:DMPG 7:3, lipids in chloroform, reconstituted in saline, 50 mg/kg i.p. day 1
[12] = liposomal, DMPC:DMPG 7:3, lipids in chloroform, reconstituted in saline, 100 mg/kg i.p. day 1
[13] = liposomal, DMPC:DMPG 7:3, lipids in chloroform, reconstituted in saline, 150 mg/kg i.p. day 1
[14] = liposomal, lipids in chloroform, reconstituted in PBS
[15] = liposomal, lipids in chloroform, reconstituted in saline

Molecule: CCCCCCC(C)(C)C(=O)[O][Pt][O]C(=O)C(C)(C)CCCCCC.N[C@@H]1CCCC[C@H]1N [B10]
- % T/C [1, 6]: 114%
- % T/C [1, 7]: 114%
- % T/C [1, 8]: 142%
- % T/C [1, 9]: 163%
- % T/C [1, 10]: 114%
- % T/C [1, 11]: 128%
- % T/C [1, 12]: 228%
- % T/C [1, 13]: 163%
- antitumor activity (in words) [1, 14]: no significant antitumor activity
- optimal dose [1, 15]: 100 mg
- intraliposomal stability (in words) [2]: intermediate stability
- percentage of intact Pt-complex ([2]; reconstituted in PBS): 95.9%
- percentage of intact Pt-complex ([2]; reconstituted in saline): 85.0%

Molecule: cis-bis-neodecanoato-trans-R,R-1,2-diaminocyclohexane platinum (II) [NDDP]
- % T/C [1, 6]: 114%
- % T/C [1, 7]: 171%
- % T/C [1, 8]: 200%
- % T/C [1, 9]: 150%
- % T/C [1, 10]: 157%
- % T/C [1, 11]: 211%
- % T/C [1, 12]: Toxic
- % T/C [1, 13]: Toxic
- optimal dose ([1]; liposomal, dry lipids, reconstituted with saline of pH 3.0): 25 mg/kg
- optimal dose ([1]; liposomal, dry lipids, reconstituted with saline of pH 5.0): 50 mg/kg
- optimal dose ([1]; liposomal, dry lipids, reconstituted with saline of pH 7.0): 100 mg/kg
- % T/C ([1]; liposomal, dry lipids, saline pH 3.0, 12.5 mg/kg, administered 6 h after reconstitution): 157%
- % T/C at the optimal dose ([1]; liposomal, dry lipids, saline pH 3.0, 25 mg/kg): 214%
- % T/C ([1]; liposomal, dry lipids, saline pH 3.0, 25 mg/kg, administered 10 min after reconstitution): 150%
- % T/C ([1]; liposomal, dry lipids, saline pH 3.0, 25 mg/kg, administered 2 h after reconstitution): 186%
- % T/C ([1]; liposomal, dry lipids, saline pH 3.0, 25 mg/kg, administered 6 h after reconstitution): 240%
- % T/C ([1]; liposomal, dry lipids, saline pH 3.0, 50 mg/kg, administered 6 h after reconstitution): Toxic
- % T/C ([1]; liposomal, dry lipids, saline pH 5.0, 12.5 mg/kg, administered 6 h after reconstitution): 186%
- % T/C ([1]; liposomal, dry lipids, saline pH 5.0, 25 mg/kg, administered 6 h after reconstitution): 200%
- % T/C at the optimal dose ([1]; liposomal, dry lipids, saline pH 5.0, 50 mg/kg): 271%
- % T/C ([1]; liposomal, dry lipids, saline pH 5.0, 50 mg/kg, administered 10 min after reconstitution): 133%
- % T/C ([1]; liposomal, dry lipids, saline pH 5.0, 50 mg/kg, administered 2 h after reconstitution): 216%
- % T/C ([1]; liposomal, dry lipids, saline pH 5.0, 50 mg/kg, administered 6 h after reconstitution): 270%
- % T/C ([1]; liposomal, dry lipids, saline pH 5.0, 100 mg/kg, administered 6 h after reconstitution): Toxic
- % T/C ([1]; liposomal, dry lipids, saline pH 7.0, 25 mg/kg, administered 6 h after reconstitution): 186%
- % T/C ([1]; liposomal, dry lipids, saline pH 7.0, 50 mg/kg, administered 6 h after reconstitution): 200%
- % T/C at the optimal dose ([1]; liposomal, dry lipids, saline pH 7.0, 100 mg/kg): 271%
- % T/C ([1]; liposomal, dry lipids, saline pH 7.0, 100 mg/kg, administered 10 min after reconstitution): 163%
- % T/C ([1]; liposomal, dry lipids, saline pH 7.0, 100 mg/kg, administered 2 h after reconstitution): 216%
- % T/C ([1]; liposomal, dry lipids, saline pH 7.0, 100 mg/kg, administered 6 h after reconstitution): 257%
- optimal dose [1, 14]: 100 mg/kg
- optimal dose [1, 15]: 50 mg/kg
- stability in the absence of DMPG ([3]; liposomes composed of only DMPC): completely preserved stability
- degradation of NDDP ([3]; sample 7: dry-powder lipids, saline pH 6.5–7.0, 6 h at room temperature): < 5%
- degradation of NDDP ([3]; sample 8: dry-powder lipids, acidic saline pH 3.0–4.0, in 10 min, yielding DACH-Pt—Cl2): 60–95%
- original NDDP remaining ([2]; 24 h, DMPC:DMPG 7:3, NDDP:total lipid ratio 1:15 or 1:30): 25%
- initial NDDP present ([2]; 24 hours, DMPC:DMPG 7:3, NDDP:total lipid ratio 1:5 or 1:10): 85%
- intraliposomal stability (in words) [2]: rather unstable
- percentage of intact Pt-complex ([2]; reconstituted in PBS): 82.1%
- percentage of intact Pt-complex ([2]; reconstituted in saline): 43.7%
- NDDP stability (%) ([2]; saline pH 3.0, 10 min after reconstitution): 43%
- NDDP stability (%) ([2]; saline pH 3.0, 2 h after reconstitution): 15%
- NDDP stability (%) ([2]; saline pH 3.0, 6 h after reconstitution): 7%
- NDDP stability (%) ([2]; saline pH 5.0, 10 min after reconstitution): 80%
- NDDP stability (%) ([2]; saline pH 5.0, 1 h after reconstitution): 72%
- NDDP stability (%) ([2]; saline pH 5.0, 2 h after reconstitution): 67%
- NDDP stability (%) ([2]; saline pH 5.0, 6 h after reconstitution): 38%
- NDDP stability (%) ([2]; saline pH 7.0, 10 min after reconstitution): 100%
- NDDP stability (%) ([2]; saline pH 7.0, 2 h after reconstitution): 95%
- NDDP stability (%) ([2]; saline pH 7.0, 6 h after reconstitution): 92%
- NDDP transformed into the active Pt-species ([2]; saline pH 5.0, calculated amount of activated species (35 mg/kg of 50 mg/kg)): about 70%
- NDDP transformed into the active Pt-species ([2]; saline pH 7.0, calculated amount of activated species (10 mg/kg of 100 mg/kg)): 10%
- effect of liposome size on intraliposomal stability ([2]; ultrasonication of multilamellar vesicles, regardless of lipid composition): did not affect the intraliposomal stability

Molecule: dichloro(1,2-diaminocyclohexane) platinum(II) [DACH-Pt—Cl2]
- time the drug remains liposome-bound without leaking out and crystallizing [4]: at least 24 h
- solubility in dimethylformamide ([5]; dimethylformamide (DMF)): good solubility
- solubility in most organic solvents ([5]; most organic solvents): insoluble
- solubility in water ([5]; water): very low solubility; also recorded: lack of solubility

Molecule: N.N.[Cl][Pt][Cl] [Cisplatin, cis-dichlorodiamine-platinum(II), reference compound]
- % T/C ([1]; Table 2 comparator, 10 mg/kg i.p. day 1, printed in the Saline column): 142%
- % T/C ([1]; Table 3 comparator, 10 mg/kg, printed in the 6 h column): 150%

Molecule: CCCCCCCCCC(=O)[O][Pt][O]C(=O)CCCCCCCCC.N[C@@H]1CCCC[C@H]1N [L10]
- % T/C [1, 6]: 114%
- % T/C [1, 7]: 100%
- % T/C [1, 8]: 100%
- % T/C [1, 9]: 100%
- % T/C [1, 10]: 100%
- % T/C [1, 11]: 157%
- % T/C [1, 12]: 178%
- % T/C [1, 13]: 123%
- antitumor activity (in words) [1, 14]: no significant antitumor activity
- optimal dose [1, 15]: 100 mg
- intraliposomal stability (in words) [2]: highly stable
- percentage of intact Pt-complex ([2]; reconstituted in PBS): 100%
- percentage of intact Pt-complex ([2]; reconstituted in saline): 93.1%
